Source: US10760110B2, “Antibiotic testing and screening system” (priority 2017, dated 2020)
Like-named read-outs stand apart in the source and are kept apart here.

Assays:
[1] = system: K. pneumoniae NVT1001 and its ΔompK35/36 and/or ΔramR mutants; assay: Etest MIC, OmpK35/36 loss and AcrAB-TolC overexpression (ΔramR) strains (Table 6); type: cell-based, Klebsiella pneumoniae; details: Klebsiella pneumoniae
Procedure, shortened: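 First, Etest determined each antibiotic's MIC, and intermediate results were adjusted upward to the next doubling dilution. Next, ceftazidime and cefotaxime were titrated in broth according to CLSI recommendations. Finally, results were interpreted with CLSI 2017 breakpoints, substituting CLSI 2015 for cephalothin and EUCAST 2017 for moxifloxacin.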

[2] = system: K. pneumoniae NVT1001 ΔramRΔompK35/36 mutant and its revertants; assay: Etest MIC, ΔramRΔompK35/36 mutant and its revertants (Table 7); type: cell-based; details: Klebsiella pneumoniae
[3] = system: K. pneumoniae NVT1001 strains with carbapenemase plasmids; assay: Etest MIC of β-lactams, OmpK35/36 loss, ΔramR and/or carbapenemase (Table 9); type: cell-based, Klebsiella pneumoniae; details: for MIC: Klebsiella pneumoniae
Procedure: DNA fragments of the resistance genes along with their flanking regions were amplified from clinical plasmids via PCR with specific primer pairs. The resulting PCR fragments were digested and then cloned into the plasmid pACYC177 or pACYC184. The resulting plasmids were then transformed into K. pneumoniae strain NVT1001 via electroporation. The recombinant bacteria were plated onto LB agar plates containing kanamycin (50 mg/L) or chloramphenicol (50 mg/L), and the presence of the cloned gene was confirmed via PCR and DNA sequencing.
The MICs of antibiotics were determined using the Etest (Biodisk AB, Sweden) according to the manufacturer's instructions. The MICs from the Etest, which fall between standard two-fold dilutions, were rounded up to the next highest two-fold value. The MICs of ceftazidime and cefotaxime against K. pneumoniae NVT1001 harbouring the pACYC177 plasmid with blaOXA-48 were further determined using a broth microdilution test according to the recommendations of the CLSI,^25 and the results were interpreted according to the breakpoints established by the CLSI in 2017.^25 Meanwhile, due to the lack of CLSI breakpoints in 2016 and 2017, the results for cephalothin were interpreted according to the breakpoints established by the CLSI in 2015,^26 and the results for moxifloxacin were interpreted according to the breakpoints established by the EUCAST in 2017.^27

C[C@H]1[C@H](NC(=O)/C(=N\OC(C)(C)C(=O)O)c2csc(N)n2)C(=O)N1S(=O)(=O)O [Aztreonam]
1 µg/mL: MIC ([1]; ΔramRΔ35/36, ΔramRΔompK35/36 mutant) | MIC ([1]; ΔramRΔ36, ΔramRΔompK36 mutant) | MIC ([2]; ΔramRΔompK35/36::ompK35 revertant) | MIC ([2]; ΔramRΔompK35/36 mutant) | MIC ([3]; VIM-1 on pACYC177, ΔramRΔ35/36 (ΔramRΔompK35/36 mutant)) | MIC ([3]; VIM-1 on pACYC177, ΔramRΔ36 (ΔramRΔompK36 mutant)) | MIC ([3]; no supplemental plasmid, ΔramRΔ35/36 (ΔramRΔompK35/36 mutant)) | MIC ([3]; no supplemental plasmid, ΔramRΔ36 (ΔramRΔompK36 mutant))
256 µg/mL: MIC ([3]; KPC-2 on pACYC177, Δ36 (ΔompK36 mutant))
0.25 µg/mL: MIC ([1]; Δ35, ΔompK35 mutant) | MIC ([2]; ΔramRΔompK35/36::ramR::ompK36 revertant) | MIC ([3]; IMP-8 on pACYC177, Δ35 (ΔompK35 mutant)) | MIC ([3]; NDM-1 on pACYC177, Δ35 (ΔompK35 mutant)) | MIC ([3]; OXA-48 on pACYC177, Δ35 (ΔompK35 mutant)) | MIC ([3]; VIM-1 on pACYC177, Δ35 (ΔompK35 mutant)) | MIC ([3]; no supplemental plasmid, Δ35 (ΔompK35 mutant))
> 256 µg/mL: MIC ([3]; KPC-2 on pACYC177, WT (NVT1001), read-out: MIC) | MIC ([3]; KPC-2 on pACYC177, Δ35 (ΔompK35 mutant)) | MIC ([3]; KPC-2 on pACYC177, Δ35/36 (ΔompK35/36 mutant)) | MIC ([3]; KPC-2 on pACYC177, ΔramR mutant) | MIC ([3]; KPC-2 on pACYC177, ΔramRΔ35 (ΔramRΔompK35 mutant)) | MIC ([3]; KPC-2 on pACYC177, ΔramRΔ35/36 (ΔramRΔompK35/36 mutant)) | MIC ([3]; KPC-2 on pACYC177, ΔramRΔ36 (ΔramRΔompK36 mutant)) | MIC ([3]; KPC-3 on pACYC177, WT (NVT1001), read-out: MIC) | MIC ([3]; KPC-3 on pACYC177, Δ35 (ΔompK35 mutant)) | MIC ([3]; KPC-3 on pACYC177, Δ35/36 (ΔompK35/36 mutant)) | MIC ([3]; KPC-3 on pACYC177, Δ36 (ΔompK36 mutant)) | MIC ([3]; KPC-3 on pACYC177, ΔramR mutant) | MIC ([3]; KPC-3 on pACYC177, ΔramRΔ35 (ΔramRΔompK35 mutant)) | MIC ([3]; KPC-3 on pACYC177, ΔramRΔ35/36 (ΔramRΔompK35/36 mutant)) | MIC ([3]; KPC-3 on pACYC177, ΔramRΔ36 (ΔramRΔompK36 mutant))
0.125 µg/mL: MIC ([3]; OXA-48 on pACYC177, Δ36 (ΔompK36 mutant))
susceptible: susceptibility category ([3]; IMP-8, NDM-1, VIM-1 and OXA-48 strains, with or without OmpK35/36 loss and/or ΔramR)
0.5 µg/mL: MIC ([1]; Δ35/36, ΔompK35/36 mutant) | MIC ([1]; ΔramR mutant) | MIC ([1]; ΔramRΔ35, ΔramRΔompK35 mutant) | MIC ([2]; ΔramRΔompK35/36::ompK35/36 revertant) | MIC ([2]; ΔramRΔompK35/36::ompK36 revertant) | MIC ([2]; ΔramRΔompK35/36::ramR revertant) | MIC ([3]; IMP-8 on pACYC177, Δ35/36 (ΔompK35/36 mutant)) | MIC ([3]; IMP-8 on pACYC177, ΔramR mutant) | MIC ([3]; IMP-8 on pACYC177, ΔramRΔ35 (ΔramRΔompK35 mutant)) | MIC ([3]; IMP-8 on pACYC177, ΔramRΔ35/36 (ΔramRΔompK35/36 mutant)) | MIC ([3]; IMP-8 on pACYC177, ΔramRΔ36 (ΔramRΔompK36 mutant)) | MIC ([3]; NDM-1 on pACYC177, Δ35/36 (ΔompK35/36 mutant)) | MIC ([3]; NDM-1 on pACYC177, ΔramR mutant) | MIC ([3]; NDM-1 on pACYC177, ΔramRΔ35 (ΔramRΔompK35 mutant)) | MIC ([3]; NDM-1 on pACYC177, ΔramRΔ35/36 (ΔramRΔompK35/36 mutant)) | MIC ([3]; NDM-1 on pACYC177, ΔramRΔ36 (ΔramRΔompK36 mutant)) | MIC ([3]; OXA-48 on pACYC177, Δ35/36 (ΔompK35/36 mutant)) | MIC ([3]; OXA-48 on pACYC177, ΔramR mutant) | MIC ([3]; OXA-48 on pACYC177, ΔramRΔ35 (ΔramRΔompK35 mutant)) | MIC ([3]; OXA-48 on pACYC177, ΔramRΔ35/36 (ΔramRΔompK35/36 mutant)) | MIC ([3]; OXA-48 on pACYC177, ΔramRΔ36 (ΔramRΔompK36 mutant)) | MIC ([3]; VIM-1 on pACYC177, Δ35/36 (ΔompK35/36 mutant)) | MIC ([3]; VIM-1 on pACYC177, ΔramR mutant) | MIC ([3]; VIM-1 on pACYC177, ΔramRΔ35 (ΔramRΔompK35 mutant)) | MIC ([3]; no supplemental plasmid, Δ35/36 (ΔompK35/36 mutant)) | MIC ([3]; no supplemental plasmid, ΔramR mutant) | MIC ([3]; no supplemental plasmid, ΔramRΔ35 (ΔramRΔompK35 mutant))
0.03 µg/mL: MIC ([1]; WT, NVT1001, read-out: MIC) | MIC ([2]; ΔramRΔompK35/36::ramR::ompK35/36 revertant) | MIC ([3]; no supplemental plasmid, WT (NVT1001), read-out: MIC)
0.06 µg/mL: MIC ([1]; Δ36, ΔompK36 mutant) | MIC ([2]; ΔramRΔompK35/36::ramR::ompK35 revertant) | MIC ([3]; IMP-8 on pACYC177, WT (NVT1001), read-out: MIC) | MIC ([3]; IMP-8 on pACYC177, Δ36 (ΔompK36 mutant)) | MIC ([3]; NDM-1 on pACYC177, WT (NVT1001), read-out: MIC) | MIC ([3]; NDM-1 on pACYC177, Δ36 (ΔompK36 mutant)) | MIC ([3]; OXA-48 on pACYC177, WT (NVT1001), read-out: MIC) | MIC ([3]; VIM-1 on pACYC177, WT (NVT1001), read-out: MIC) | MIC ([3]; VIM-1 on pACYC177, Δ36 (ΔompK36 mutant)) | MIC ([3]; no supplemental plasmid, Δ36 (ΔompK36 mutant))
